Laboratory results from ChEMBL document CHEMBL1201862, “PubChem BioAssay data set” (2004).
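48-hour exposure; five concentrations; linearly interpolated endpoints. The concentration for 50% growth inhibition is given as GI50.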 Active and inactive are the calls of the source. Cut-off read from the data, not from the text of the source: active = GI50 up to about 1.1 µM and inactive = higher.

Assays:
Experiment in all cases: NCI tumour cell line growth inhibition, 48 h
UO-31 = test system: UO-31
K562 = test system: K562
SF-295 = test system: SF-295
HOP-62 = test system: HOP-62
MOLT-4 = test system: MOLT-4
SF-268 = test system: SF-268
HT-29 = test system: HT-29
CAKI-1 = test system: CAKI-1
Malme-3M = test system: Malme-3M
HCT-15 = test system: HCT-15
SNB-19 = test system: SNB-19
OVCAR-5 = test system: OVCAR-5
OVCAR-4 = test system: OVCAR-4
SN12C = test system: SN12C
CCRF-CEM = test system: CCRF-CEM
A498 = test system: A498
KM12 = test system: KM12
NCI-H23 = test system: NCI-H23
UACC-62 = test system: UACC-62
NCI-H460 = test system: NCI-H460

Row | SMILES | GI50 (UO-31) | GI50 (K562) | GI50 (SF-295) | GI50 (HOP-62) | GI50 (MOLT-4) | GI50 (SF-268) | GI50 (HT-29) | GI50 (CAKI-1) | GI50 (Malme-3M) | GI50 (HCT-15) [µM] | GI50 (SNB-19) | GI50 (OVCAR-5) | GI50 (OVCAR-4) | GI50 (SN12C) | GI50 (CCRF-CEM) | GI50 (A498) | GI50 (KM12) | GI50 (NCI-H23) | GI50 (UACC-62) | GI50 (NCI-H460)
1 | Cc1c(N2C(=O)CS(=O)(=O)C2c2cccc(Oc3ccccc3)c2)c(=O)n(-c2ccccc2)n1C (stereo not given) | 62.7 µM (inactive) | 24.3 µM (inactive) | 84.9 µM (inactive) | 33.9 µM (inactive) | 20.5 µM (inactive) | 59.3 µM (inactive) | 34.4 µM (inactive) | 42.3 µM (inactive) | 0.512 µM (active) | 61.5 | > 100 µM (inactive) | > 100 µM (inactive) | 14.6 µM (inactive) | 40.5 µM (inactive) | 45.9 µM (inactive) | < 0.01 µM (active) | 19.4 µM (inactive) | > 100 µM (inactive) | 66.2 µM (inactive) | 37.2 µM (inactive)
2 | O=C1Nc2ccccc2Nc2ccncc21 | > 100 µM (inactive) | > 100 µM (inactive) | > 100 µM (inactive) | > 100 µM (inactive) | > 100 µM (inactive) | > 100 µM (inactive) | > 100 µM (inactive) | > 100 µM (inactive) | > 100 µM (inactive) | > 100 | > 100 µM (inactive) | > 100 µM (inactive) | > 100 µM (inactive) | > 31.6 µM (inactive) | > 100 µM (inactive) | > 100 µM (inactive) | > 100 µM (inactive) | > 100 µM (inactive) | > 100 µM (inactive) | > 100 µM (inactive)
